“Also recorded” adds a separate entry of the source.
Legend:
A498 = experiment: XTT cell viability assay, A498; type: cell-based, human; details: Homo sapiens, A498; XTT assay (48 h); standard deviation of 10%; read-out: EC50 (μM) Kidney A498
Experimental: (§1) Fifty microliters of sodium 3′-[1-phenylaminocarbonyl)-3,4-tetrazolium]-bis(4-methoxy-6-nitro) benzene sulfonic acid hydrate (XTT) reagent was added to each well. The assay is based on the cleavage of the yellow tetrazolium salt XTT to form an orange formazan dye by metabolically active cells. The absorbance of the formazan product, reflecting cell viability, was measured at 490 nm. Each assay was performed in quadruplicate.
(§2) Compounds #1-#14 have been assayed as potential anti-proliferative agents against a panel of human breast head and neck, and kidney tumor cells and hematological malignancies, selected on the basis of their aggressiveness (e.g. incurable triple-negative breast cancer cells: MDA-MB-231; kidney ccRCC cells: RCC4, A498 and 786-O and 786R; head and neck cancer cells: CAL33, CAL33RR, CAL27, and CAL27RR; acute myeloid cell lines: OCI-AML2, OCI-AML3, MolM13, and MolM14; myelodysplastic cell line: SM1; and chronic myeloid cell line: CML). All these cell lines share as common denominator the expression of CXCR1 and CXCR2. The EC50 values have been measured by a XTT colorimetric assay, and compared to those of SB-225002, used as a reference; the results are listed in Table 1.

786-O = experiment: XTT cell viability assay, 786-O; type: cell-based, human
Experimental: A, B: Naive (786-O, A), and sunitinib-resistant (786-R, B) 786-O cells, were treated with compound #1 or sunitinib (1 to 10 μM) for 48 hr. Cell viability was measured by XTT assays;
D, E: 786-O (D), 786-R (E), were treated with 2.5 μM compound #1 or 2.5 μM sunitinib for 24 h to 96 h. The cells metabolism was measured by XTT assay;
as §1, §2

OCI-AML2 = experiment: XTT cell viability assay, OCI-AML2; type: cell-based, human; details: Homo sapiens, OCI-AML2; XTT assay (48 h); standard deviation of 10%; read-out: EC50 (μM) AML OCI-AML2
Experimental: as §1, §2

OCI-AML3 = experiment: XTT cell viability assay, OCI-AML3; type: cell-based, human; details: Homo sapiens, OCI-AML-3; XTT assay (48 h); standard deviation of 10%
Experimental: as §1, §2

[1] = tested on: malignant (ccRCC and hematological) cells; experiment: FACS analysis of cell death markers (AV, PI), malignant cells; type: cell-based, human; details: 5 μM, 48 h
Experimental: FIG. 1: Observation by FACS analyses of early (Annexin AV) and late (Propidium Iodide, PI) apoptosis markers expressed by healthy and malignant cells after treatment with compounds #1 and #2 at 5 μM. CT: negative control.
(§3) Apoptosis analysis: After stimulation, cells were washed with ice-cold PBS and were stained with the annexin-V-fluos staining kit (Roche, Meylan, France) according to the manufacturer's procedure. Fluorescence was measured by using the FL2 (AV) and FL3 (propidium iodide, PI) channels of a fluorescence-activated cell sorter apparatus (Calibur cytometer).
To complete these XTT assays, malignant (ccRCC and hematological) and healthy (human fibroblasts FHN) cells have been grown with compounds #1 or #2, and after 48h the expression of cell death markers (AV and PI) has been quantified by FACS analyses (FIG. 1).

[2] = tested on: phosphorylation of ERK and AKT; experiment: Immunoblotting of p-ERK and p-AKT in 786-O and 786-R; type: cell-based, human; details: 2.5 μM, 1 to 48 h
Experimental: H: 786-O and 786-R were treated with 2.5 μM compound #1 for 1 to 48 h. p-ERK and p-AKT levels were determined by immunoblotting. ERK and AKT served as loading controls. *P<0.05; **P<0.01; ***P<0.001.
(§4) Cells were lysed in buffer containing 3% SDS, 10% glycerol and 0.825 mM Na2HPO4. 30 to 50 μg of proteins were separated on 10% SDS-PAGE, transferred onto a PVDF membrane (Immobilon, Millipore, France) and then exposed to the appropriate antibodies. Proteins were visualized with the ECL system using horseradish peroxidase-conjugated anti-rabbit or anti-mouse secondary antibodies.

TF and CC cells = experiment: FACS apoptosis markers, primary RCC cells; type: cell-based, human; details: 1 μM, 48 h
Experimental: C: Primary RCC cells (TF and CC) and normal renal cells (15S) were treated with compound #1 (1 to 5 μM) for 48 h. Cells were stained with the PI/annexin-V-fluos staining kit according to the manufacturer's indications. Histograms show both annexin-V+/PI− cells (open bars) and annexin-V+/PI+ cells (filled bars). *P<0.05; **P<0.01; ***P<0.001.
as §3

[3] = tested on: CXCL7-dependent HuVEC migration; experiment: Boyden chamber migration assay, CXCL7-dependent; type: cell-based; details: CXCL7 (50 ng/ml), 24 hr
Experimental: CXCL7 or VEGFA-stimulated chemotaxis assays were monitored using modified Boyden chambers containing polycarbonate membranes (8-μm pores, Transwell; Corning, Sigma). Cells were seeded on the upper side of the filters and chambers were placed on 24-well plates containing CXCL7 (50 ng/ml) or VEGFA (50 ng/ml). Cells were allowed to migrate for 24 hr at 37° C. in 5% CO2. Migratory cells on the lower membrane surface were fixed in 3% paraformaldehyde, stained with 0.1% crystal violet.

HuVEC = HuVEC viability/proliferation (XTT), basal and CXCL5/CXCL7-dependent; type: cell-based; details: XTT 48 h; 100 ng/ml CXCL7 or CXCL5, 0.25 or 0.5 μM
Experimental: C: HuVEC were grown in the presence of different concentrations of compound #1 for 48h. Cell viability was measured by XTT assays;
D: HuVEC were incubated with 100 ng/ml CXCL7 or CXCL5, in presence of 0.25 or 0.5 μM compound #1 for 48 h. Cell viability was measured by XTT assays;
as §1

ERK signaling pathway = experiment: Immunoblotting of p-ERK in CXCL5-stimulated HuVEC; type: cell-based; details: 5 μM pre-treatment 1 h, CXCL5 50 ng/ml 10 min
Experimental: E: HuVEC were pre-treated with 5 μM compound #1 for 1 h then stimulated with 50 ng/ml CXCL5 for 10 min. p-ERK levels were analyzed by immunoblotting. ERK and HSP60 served as loading controls *P<0.05; **P<0.01; ***P<0.001.
as §4

O=C(Nc1cccc(Cl)c1)Nc1nc2ccc([N+](=O)[O-])cc2s1 [Compound #1, 1-(3-chlorophenyl)-3-(6-nitrobenzo[d]thiazol-2-yl)urea]
EC50 (A498): 2.5 µM
time of treatment to total inhibition of proliferation (786-O; 786-O cells, 2.5 μM, XTT 24 h to 96 h): approximately 65 hours
EC50 (786-O; Homo sapiens, 786-0, XTT assay (48 h), standard deviation of 10%, read-out: EC50 (μM) Kidney 786-O): 2 µM
EC50 (OCI-AML2): 5 µM
EC50 (OCI-AML3): 4 µM
early (AV) and late (PI) apoptosis markers on malignant cells [1]: cytotoxic effect on malignant cells; also recorded: more efficient than compound #2
phosphorylation of ERK and AKT [2]: inhibits the phosphorylation of ERK and AKT
apoptosis markers in TF and CC cells (TF and CC cells): puts into exergue the apoptosis markers in TF and CC cells
decrease of HuVECs motility [3]: more than 50%
basal and CXCL5/CXCL7-dependent HuVEC proliferation (HuVEC): inhibits basal and CXCL5/CXCL7-dependent HuVEC proliferation
ERK signaling pathway (p-ERK) in HuVEC (ERK signaling pathway): inhibition of the ERK signaling pathway
